Results from patent US9113629B2, “4-amino-6-(4-substituted-phenyl)-picolinates and 6-amino-2-(4-substituted-phenyl)-pyrimidine-4-carboxylates and their use as herbicides” (DOW AGROSCIENCES LLC, priority 2013, dated 2015).
Where two headings read alike, the source gives them in different places.

Experiments:
Assay in all cases: Post-emergent Test III, herbicidal activity in wheat and barley
Assay type in all cases: in vivo
[1] = test system: TRZSS: wheat, including spring and winter (Triticum aestivum); conditions: for GR20 TRZSS: probit analysis; for pest or weed control at 35 g/ha / pest or weed control at 70 g/ha: Triticum aestivum, post-emergence, 504 h; for pest or weed control at 35 g/ha: 35 g ai/ha; for pest or weed control at 70 g/ha: 70 g ai/ha
Outline: (§1)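 GR20, GR50, GR80 and GR90 come from probit analysis of visual injury scores (0 = none, 100 = complete kill) taken 21 d after treatment. Foliar application was by track sprayer delivering 187 L/ha at five rates, from high down to 1/16×, onto greenhouse plants at the 2–3 leaf stage, with solvent-blank controls.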

[2] = test system: VERPE: bird's-eye speedwell (veronica persica); conditions: for GR50 VERPE: dose for 50 percent growth reduction; for GR50 VERPE / GR80 VERPE: probit analysis; for GR80 VERPE: dose for 80 percent growth reduction; for pest or weed control at 35 g/ha / pest or weed control at 70 g/ha: Veronica persica, post-emergence, 504 h; for pest or weed control at 35 g/ha: 35 g ai/ha; for pest or weed control at 70 g/ha: 70 g ai/ha
Outline: as §1

[3] = test system: SASKR: Russian thistle (Salsola iberica); conditions: for pest or weed control at 35 g/ha / pest or weed control at 70 g/ha: Salsola tragus, post-emergence, 504 h; for pest or weed control at 35 g/ha: 35 g ai/ha; for pest or weed control at 70 g/ha: 70 g ai/ha; for GR50 SASKR: dose for 50 percent growth reduction; for GR50 SASKR / GR80 SASKR: probit analysis; for GR80 SASKR: dose for 80 percent growth reduction
Outline: as §1

[4] = test system: KCHSC: kochia (Kochia scoparia); conditions: for pest or weed control at 35 g/ha / pest or weed control at 70 g/ha: Bassia scoparia, post-emergence, 504 h; for pest or weed control at 35 g/ha: 35 g ai/ha; for pest or weed control at 70 g/ha: 70 g ai/ha; for GR50 KCHSC: dose for 50 percent growth reduction; for GR50 KCHSC / GR80 KCHSC: probit analysis; for GR80 KCHSC: dose for 80 percent growth reduction
Outline: as §1

[5] = test system: MATSS: scented mayweed (Matricaria chamomilla), pineappleweed (Matricaria matricarioides); conditions: for pest or weed control at 35 g/ha / pest or weed control at 70 g/ha: Matricaria chamomilla, post-emergence, 504 h; for pest or weed control at 35 g/ha: 35 g ai/ha; for pest or weed control at 70 g/ha: 70 g ai/ha; for GR50 MATSS: dose for 50 percent growth reduction; for GR50 MATSS / GR80 MATSS: probit analysis; for GR80 MATSS: dose for 80 percent growth reduction
Outline: as §1

[6] = test system: VIOSS: wild pansy (Viola tricolor), field violet (Viola arvensis); conditions: for GR50 VIOSS: dose for 50 percent growth reduction; for GR50 VIOSS / GR80 VIOSS: probit analysis; for GR80 VIOSS: dose for 80 percent growth reduction; for pest or weed control at 35 g/ha / pest or weed control at 70 g/ha: Viola tricolor, post-emergence, 504 h; for pest or weed control at 35 g/ha: 35 g ai/ha; for pest or weed control at 70 g/ha: 70 g ai/ha
Outline: as §1

[7] = test system: HORSS: barley, including spring and winter (Hordeum vulgare); conditions: for pest or weed control at 35 g/ha / pest or weed control at 70 g/ha: Hordeum vulgare, post-emergence, 504 h; for pest or weed control at 35 g/ha: 35 g ai/ha; for pest or weed control at 70 g/ha: 70 g ai/ha; for GR20 HORSS: probit analysis
Outline: as §1

[8] = Table 8, dose for 20 percent growth reduction, 21 d
[9] = Table 8, post-emergent, 21 d, read-out: Visual Growth Reduction (%) 21 Days After Application TRZSS
[10] = Table 8, post-emergent, 21 d, read-out: Visual Growth Reduction (%) 21 Days After Application VERPE
[11] = Table 8, post-emergent, 21 d, read-out: Visual Growth Reduction (%) 21 Days After Application SASKR
[12] = Table 8, post-emergent, 21 d, read-out: Visual Growth Reduction (%) 21 Days After Application KCHSC
[13] = Table 8, post-emergent, 21 d, read-out: Visual Growth Reduction (%) 21 Days After Application MATSS
[14] = Table 8, post-emergent, 21 d, read-out: Visual Growth Reduction (%) 21 Days After Application VIOSS
[15] = Table 8, post-emergent, 21 d, read-out: Visual Growth Reduction (%) 21 Days After Application HORSS
[16] = 21 days after application, read-out: Visual Gorowth Reduction (%) 21 days After Application TRZSS
[17] = dose for 20 percent growth reduction (crop), 21 days after application
[18] = 21 days after application, read-out: Visual Gorowth Reduction (%) 21 days After Application VERPE
[19] = 21 days after application, read-out: Visual Gorowth Reduction (%) 21 days After Application SASKR
[20] = 21 days after application, read-out: Visual Gorowth Reduction (%) 21 days After Application KCHSC
[21] = 21 days after application, read-out: Visual Gorowth Reduction (%) 21 days After Application MATSS
[22] = 21 days after application, read-out: Visual Gorowth Reduction (%) 21 days After Application VIOSS
[23] = 21 days after application, read-out: Visual Gorowth Reduction (%) 21 days After Application HORSS

SMILES: Nc1cc(-c2ccc(Br)c(F)c2)nc(C(=O)O)c1Cl [Compound 110, 4-Amino-6-(4-bromo-3-fluorophenyl)-3-chloropicolinic acid]
- GR20 TRZSS [1, 8]: 1 g ai/ha
- pest or weed control at 35 g/ha [1, 9]: 85 to 94%
- pest or weed control at 70 g/ha [1, 9]: 85 to 94%
- GR50 VERPE ([2]; Table 8, 21 d): >140 g ai/ha
- GR80 VERPE ([2]; Table 8, 21 d): >140 g ai/ha
- pest or weed control at 35 g/ha [2, 10]: 0 to 29%
- pest or weed control at 70 g/ha [2, 10]: 0 to 29%
- pest or weed control at 35 g/ha [3, 11]: 75 to 84%
- pest or weed control at 70 g/ha [3, 11]: 85 to 94%
- GR50 SASKR ([3]; Table 8, 21 d): 1 g ai/ha
- GR80 SASKR ([3]; Table 8, 21 d): 30 g ai/ha
- pest or weed control at 35 g/ha [4, 12]: 95 to 100%
- pest or weed control at 70 g/ha [4, 12]: 95 to 100%
- GR50 KCHSC ([4]; Table 8, 21 d): 1 g ai/ha
- GR80 KCHSC ([4]; Table 8, 21 d): 1 g ai/ha
- pest or weed control at 35 g/ha [5, 13]: 60 to 74%
- pest or weed control at 70 g/ha [5, 13]: 85 to 94%
- GR50 MATSS ([5]; Table 8, 21 d): 10 g ai/ha
- GR80 MATSS ([5]; Table 8, 21 d): 37 g ai/ha
- GR50 VIOSS ([6]; Table 8, 21 d): 51 g ai/ha
- GR80 VIOSS ([6]; Table 8, 21 d): 144 g ai/ha
- pest or weed control at 35 g/ha [6, 14]: 30 to 44%
- pest or weed control at 70 g/ha [6, 14]: 60 to 74%
- pest or weed control at 35 g/ha [7, 15]: 85 to 94%
- pest or weed control at 70 g/ha [7, 15]: 95 to 100%
- GR20 HORSS [7, 8]: 1 g ai/ha

SMILES: COc1c(N)nc(-c2ccc(Br)c(F)c2)nc1C(=O)O [Compound 113, 6-Amino-2-(4-bromo-3-fluorophenyl)-5-methoxypyrimidine-4-carboxylic acid]
- GR20 TRZSS [1, 8]: 1 g ai/ha
- pest or weed control at 35 g/ha [1, 9]: 85 to 94%
- pest or weed control at 70 g/ha [1, 9]: 85 to 94%
- GR50 VERPE ([2]; Table 8, 21 d): 3 g ai/ha
- GR80 VERPE ([2]; Table 8, 21 d): 18 g ai/ha
- pest or weed control at 35 g/ha [2, 10]: 85 to 94%
- pest or weed control at 70 g/ha [2, 10]: 85 to 94%
- pest or weed control at 35 g/ha [3, 11]: 75 to 84%
- pest or weed control at 70 g/ha [3, 11]: 85 to 94%
- GR50 SASKR ([3]; Table 8, 21 d): 5 g ai/ha
- GR80 SASKR ([3]; Table 8, 21 d): 36 g ai/ha
- pest or weed control at 35 g/ha [4, 12]: 95 to 100%
- pest or weed control at 70 g/ha [4, 12]: 95 to 100%
- GR50 KCHSC ([4]; Table 8, 21 d): 3 g ai/ha
- GR80 KCHSC ([4]; Table 8, 21 d): 10 g ai/ha
- pest or weed control at 35 g/ha [5, 13]: 85 to 94%
- pest or weed control at 70 g/ha [5, 13]: 95 to 100%
- GR50 MATSS ([5]; Table 8, 21 d): 4 g ai/ha
- GR80 MATSS ([5]; Table 8, 21 d): 15 g ai/ha
- GR50 VIOSS ([6]; Table 8, 21 d): 4 g ai/ha
- GR80 VIOSS ([6]; Table 8, 21 d): 11 g ai/ha
- pest or weed control at 35 g/ha [6, 14]: 95 to 100%
- pest or weed control at 70 g/ha [6, 14]: 95 to 100%
- pest or weed control at 35 g/ha [7, 15]: 85 to 94%
- pest or weed control at 70 g/ha [7, 15]: 95 to 100%
- GR20 HORSS [7, 8]: 1 g ai/ha

SMILES: COC(=O)c1nc(-c2ccc(Br)c(F)c2F)nc(N)c1OC [Compound 122, methyl 6-amino-2-(4-bromo-2,3-difluorophenyl)-5-methoxypyrimidine-4-carboxylate]
- pest or weed control at 35 g/ha [1, 16]: 75 to 84%
- pest or weed control at 70 g/ha [1, 16]: 85 to 94%
- GR20 TRZSS [1, 17]: 1 g ai/ha
- pest or weed control at 35 g/ha [2, 18]: 95 to 100%
- pest or weed control at 70 g/ha [2, 18]: 95 to 100%
- GR50 VERPE ([2]; 21 days after application): 1 g ai/ha
- GR80 VERPE ([2]; 21 days after application): 2 g ai/ha
- pest or weed control at 35 g/ha [3, 19]: 95 to 100%
- pest or weed control at 70 g/ha [3, 19]: 95 to 100%
- GR50 SASKR ([3]; 21 days after application): <17.5 g ai/ha
- GR80 SASKR ([3]; 21 days after application): <17.5 g ai/ha
- pest or weed control at 35 g/ha [4, 20]: 85 to 94%
- pest or weed control at 70 g/ha [4, 20]: 95 to 100%
- GR50 KCHSC ([4]; 21 days after application): 5 g ai/ha
- GR80 KCHSC ([4]; 21 days after application): 14 g ai/ha
- pest or weed control at 35 g/ha [5, 21]: 0 to 29%
- pest or weed control at 70 g/ha [5, 21]: 30 to 44%
- GR50 MATSS ([5]; 21 days after application): >140 g ai/ha
- GR80 MATSS ([5]; 21 days after application): >140 g ai/ha
- pest or weed control at 35 g/ha [6, 22]: 95 to 100%
- pest or weed control at 70 g/ha [6, 22]: 95 to 100%
- GR50 VIOSS ([6]; 21 days after application): 10 g ai/ha
- GR80 VIOSS ([6]; 21 days after application): 21 g ai/ha
- pest or weed control at 35 g/ha [7, 23]: 60 to 74%
- pest or weed control at 70 g/ha [7, 23]: 85 to 94%
- GR20 HORSS [7, 17]: 3 g ai/ha

SMILES: COC(=O)c1nc(-c2ccc(I)c(F)c2F)cc(N)c1Cl [Compound 129, Methyl 4-amino-3-chloro-6-(2,3-difluoro-4-iodophenyl)picolinate]
- pest or weed control at 35 g/ha [1, 16]: 75 to 84%
- pest or weed control at 70 g/ha [1, 16]: 85 to 94%
- GR20 TRZSS [1, 17]: 1 g ai/ha
- pest or weed control at 35 g/ha [2, 18]: 30 to 44%
- pest or weed control at 70 g/ha [2, 18]: 45 to 59%
- GR50 VERPE ([2]; 21 days after application): 92 g ai/ha
- GR80 VERPE ([2]; 21 days after application): >140 g ai/ha
- pest or weed control at 35 g/ha [3, 19]: 75 to 84%
- pest or weed control at 70 g/ha [3, 19]: 85 to 94%
- GR50 SASKR ([3]; 21 days after application): 6 g ai/ha
- GR80 SASKR ([3]; 21 days after application): 41 g ai/ha
- pest or weed control at 35 g/ha [4, 20]: 85 to 94%
- pest or weed control at 70 g/ha [4, 20]: 95 to 100%
- GR50 KCHSC ([4]; 21 days after application): 7 g ai/ha
- GR80 KCHSC ([4]; 21 days after application): 21 g ai/ha
- pest or weed control at 35 g/ha [5, 21]: 0 to 29%
- pest or weed control at 70 g/ha [5, 21]: 30 to 44%
- GR50 MATSS ([5]; 21 days after application): 89 g ai/ha
- GR80 MATSS ([5]; 21 days after application): 131 g ai/ha
- pest or weed control at 35 g/ha [6, 22]: 75 to 84%
- pest or weed control at 70 g/ha [6, 22]: 95 to 100%
- GR50 VIOSS ([6]; 21 days after application): 17 g ai/ha
- GR80 VIOSS ([6]; 21 days after application): 34 g ai/ha
- pest or weed control at 35 g/ha [7, 23]: 85 to 94%
- pest or weed control at 70 g/ha [7, 23]: 85 to 94%
- GR20 HORSS [7, 17]: 1 g ai/ha
